Reference: patent US5434132A, “Neuropeptide antagonists” (Imperial Cancer Research Technology, Ltd., priority 1988, dated 1995)
Where two headings read alike, the source gives them in different places. Non-standard residues stand in square brackets, D forms with d. Residues, ends and D or L forms follow the SMILES beside them. No end group written: not given here. *: point of attachment. X1 = CC(C)C[C@@H](CN[C@@H](CC(C)C)C(N)=O)N*; pGlu = O=C1CC[C@@H](C(=O)O)N1

Tests used:
[1] = target: T1, vasopressin receptor (Mus musculus, UniProt Q62463); conditions: references 4,12,13; cited from earlier work
T1 construct: endogenous in cells; host or cells: Swiss 3T3 cells
T1 sequence (Q62463 whole entry): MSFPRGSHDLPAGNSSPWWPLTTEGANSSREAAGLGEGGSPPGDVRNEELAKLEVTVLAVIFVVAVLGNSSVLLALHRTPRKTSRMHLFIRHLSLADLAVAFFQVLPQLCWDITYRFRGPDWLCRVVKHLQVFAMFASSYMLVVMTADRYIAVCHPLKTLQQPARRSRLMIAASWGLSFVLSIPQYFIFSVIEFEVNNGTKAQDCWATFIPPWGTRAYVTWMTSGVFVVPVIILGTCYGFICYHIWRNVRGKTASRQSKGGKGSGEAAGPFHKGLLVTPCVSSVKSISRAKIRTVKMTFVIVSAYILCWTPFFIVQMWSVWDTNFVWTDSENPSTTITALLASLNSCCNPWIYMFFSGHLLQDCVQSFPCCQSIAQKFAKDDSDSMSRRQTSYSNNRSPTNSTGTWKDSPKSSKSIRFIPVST

[2] = test system: small cell lung cancer (SCLC) cell lines; assay: Growth in vitro of small cell lung cancer (SCLC) cell lines
[3] = test system: Swiss 3T3 cells
[4] = target: T2, bombesin/GRP receptor (Mus musculus, UniProt P21729); assay: 125I-GRP binding to membrane preparations of Swiss 3T3 cells; parameters: species or system murine; conditions: 0.5 nM 125I-GRP; for specific binding of 125I-GRP to membranes: addition at 1μM, 37° C., 10 minutes, None 305 ± 9, mean±SEM, n=3
T2 construct: Membrane protein (150 μg) prepared from Swiss 3T3 cells as described above; endogenous in cells; host or cells: Swiss 3T3 cells; membrane-enriched fraction prepared with 5 mM Mg2+
T2 sequence (P21729 whole entry): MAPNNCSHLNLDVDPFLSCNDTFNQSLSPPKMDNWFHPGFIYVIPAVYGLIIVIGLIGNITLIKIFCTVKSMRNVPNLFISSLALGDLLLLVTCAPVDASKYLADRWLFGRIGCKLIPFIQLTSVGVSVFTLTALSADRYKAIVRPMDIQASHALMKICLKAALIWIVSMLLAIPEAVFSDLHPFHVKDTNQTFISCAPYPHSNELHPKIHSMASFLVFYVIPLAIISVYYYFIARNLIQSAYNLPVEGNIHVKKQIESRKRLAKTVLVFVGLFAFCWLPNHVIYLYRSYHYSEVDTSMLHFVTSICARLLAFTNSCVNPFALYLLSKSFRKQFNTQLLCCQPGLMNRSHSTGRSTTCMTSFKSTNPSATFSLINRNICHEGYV
Experimental: Membrane preparation: Cultures in roller bottles were washed twice with 150 ml phosphate buffered saline (PBS) (0.14M NaCl, 5 mM KCl, 0.01M Na2 HPO4, 1.8 mM KH2 PO4; pH 7.2) at room temperature. The cells were then harvested at 4° C. by scraping into ice cold PBS containing 5 mM MgCl2, 1 mM [ethylenebis(oxyethylenenitrilo)]tetraacetic acid (EGTA), 1 mg/ml bacitracin, 10 ug/ml aprotonin, 1 mg/ml soybean trypsin inhibitor and 50 μM phenylmethylsulphonyl fluoride. All subsequent steps were carried out at 4° C. The cells were pelleted by centrifugation at 750 x g for 10 minutes and resuspended 5×10^6 /ml in solution A containing 50 mM 4-(2-Hydroxyethyl)-1-piperazineethanesulfonic acid (Hepes), 5 mM MgCl2, 1 mM EGTA, 1 mg/ml bacitracin, 10 μg/ml aprotonin, 1 mg/ml soybean trypsin inhibitor and 50 μM phenylmethylsulfonyl fluoride, adjusted to pH 7.4 with NaOH at 4° C. Cells were then disrupted using a Dounce homogeniser (A pestle) 75 strokes. The homogenate was centrifuged at 500 x g for 10 minutes to remove nuclear material and intact cells and the supernatant was centrifuged again at 30000 x g for 30 minutes. The resulting pellet, representing a membrane-enriched preparation was resuspended at a protein concentration of 5 to 10 mg/ml in solution A and stored in liquid nitrogen. For experiments, membranes were thawed and diluted to a concentration of 1 mg/ml with solution A.
Receptor binding assay: Binding assays were carried out in a total volume of 100 ul in binding medium containing 50 mM Hepes, 5 mM MgCl2, 1 mg/ml bacitracin and 1% bovine serum albumin (BSA), adjusted to pH 7.4 with NaOH, unless otherwise indicated. […] Non-specific binding was subtracted from the total binding to obtain specific binding. The membranes were incubated for either 10 minutes at 37° C. or 30 minutes: at 15° C. as indicated.
The binding reactions were terminated at the specified times by rapid filtration on GF/B glass fibre filters (Whatmann, 1.0 μm pore size). Each filter was washed five times with 5 ml of PBS containing 1% BSA at 4° C. (15 s total time) using a Millipore filtration apparatus. Before the addition of membranes the filters were soaked for 24 hours in 5% polyethylenimine at 4° C. and washed with 5 ml of PBS containing 1% BSA immediately prior to use. […] Radioactivity was determined with a Beckmann γ-counter.
When 1n[(Beq - Bt)/(BoLo - Beq Bt)]is plotted as a function of time k1 can be determined from the slope by the following relation k1 =slope x [Beg/(Beg^2 - BoLo)](36) where Bo and Lo are the initial concentrations of receptor and ligand respectively. Bt is the concentration of receptor-ligand complex at time t and Beg is its concentration at equilibrium. Equation (1) takes into account the decrease in free ligand concentration that occurs during the binding reaction.
The first order rate constant of dissociation was determined from the slope of the line obtained by plotting ln(Bt/Beg) as a function of time.
The reactions were terminated and specific binding determined as described in "Experimental Procedures".

[5] = test system: Swiss 3T3 cells; conditions: references 4,12,13; cited from earlier work
[6] = test system: Swiss 3T3 cells; type: cell-based, murine
[7] = test system: Swiss 3T3 cells; assay: Mitogenesis stimulated by VIP in Swiss 3T3 cells; type: cell-based, murine
[8] = test system: Swiss 3T3 cells; remark: listed apart in the source
[9] = test system: Swiss 3T3 cells; conditions: earlier patent application and references 10, 11; cited from earlier work
[10] = test system: Swiss 3T3 cells; assay: Vasopressin-induced DNA synthesis in Swiss 3T3 cells; type: cell-based, murine
[11] = test system: bombesin/GRP, bradykinin and vasopressin receptors; assay: Mitogenic responses elicited through bombesin/GRP, bradykinin and vasopressin receptors; type: cell-based, murine
[12] = test system: guinea pig pancreatic acini; conditions: read-out: 50% inhibition (IC50) of bombesin-stimulated amylase release; cited from earlier work
[13] = target: T2, bombesin/GRP receptor; assay: [125I]GRP binding to intact Swiss 3T3 cells; parameters: species or system murine; conditions: 37° C.
[14] = target: T3, Mr 75,000-85,000 glycoprotein component of the receptor (Mus musculus, UniProt P21729); assay: Cross-linking of [125I]GRP to the Mr 75,000-85,000 glycoprotein in intact Swiss 3T3 cells; type: binding, murine; conditions: 1 nM [125I]GRP, 24° C.
T3 construct: endogenous in cells; host or cells: Swiss 3T3 cells (intact, confluent and quiescent)
T3 sequence (P21729 whole entry): as above
Experimental: Methods: Swiss 3T3 cells were maintained in culture and assays of DNA synthesis performed as previously described 2,4,6 In all the figures, values shown represent the mean of at least 2 determinations. […] After 10 mins they were washed twice with binding medium, then incubated at 24° C. in 1 ml containing […] ethylene glycol bis(succinimidylsuccinate) at pH 7.4. After 10 mins they were washed twice with cold binding medium and solubilised in 100 μl sample buffer^8,then immediately boiled for 5 mins, and electrophoresed on a 10% polyacrylamide gel.

[15] = test system: Swiss 3T3 cells; assay: EGF receptor transmodulation elicited by GRP in Swiss 3T3 cells; type: cell-based, murine; conditions: 1 min
[16] = test system: Swiss 3T3 cells; assay: Ca2+ mobilisation elicited by GRP in Swiss 3T3 cells; type: cell-based, murine; conditions: 5 secs
[17] = target: T4, Mr 75,000-85,000 protein (Mus musculus, UniProt P21729); assay: Chemical cross-linking (EGS) of 125I-GRP to the Mr 75,000-85,000 protein in Swiss 3T3 membranes; type: binding, murine; conditions: 10 min, read-out: 125I-GRP affinity labelling of the Mr 75,000-85,000 protein
T4 construct: Membrane protein (150 μg) prepared from Swiss 3T3 cells as described above; endogenous in cells; host or cells: Swiss 3T3 cells; membrane-enriched fraction prepared with 5 mM Mg2+
T4 sequence (P21729 whole entry): as above
Experimental: BSA was omitted from all solutions used in the cross-linking studies. At the end of the incubation the membranes were centrifuged at 1000 rpm for 1 minute in a MSE microfuge at room n temperature. The pellets were then resuspended in cross-linking medium containing 4 mM of the cross-linking reagent (EGS) and incubated at 37° C. or 15° C. for 5 minutes or 15 minutes respectively. The reaction was terminated by centrifugation for 1 minute followed by one wash with cross-linking medium and centrifugation. Samples were solubilised in 0.20 ml of 2× sample buffer, (0.2 M Tris-HCl pH 6.8, 10% (w/v) glycerol, 6% sodium dodecyl sulphate (SDS) (w/v), 4% β-mercaptoethanol (v/v), and 2 mM EDTA), immediately heated to 100° C. for 10 minutes and analysed by one dimensional electrophoresis.
SDS-Polyacrylaaide Gel glectrophoresis: Slab gel electrophoresis was performed using 8% acrylamide in the separating gel and 4% in the stacking gel and 0.1% SDS (37). After electrophoresis gels were stained, desrained and dried down onto paper for autoradiography with Fuji x-ray film. Dried gels were exposed for 2-4 days at -70° C. Autoradiograms were scanned using an LKB ultrascan XL densitometer; and the incorporation of radioactivity into the Mr 75,000-85,000 band was quantified using the Ultroscan XL internal digital integrator.
Following incubation at 37° C. for 10 minutes the membranes were pelleted by centrifugation and chemical cross-linking carried out as described in "Experimental Procedures" using 4 mM EGS. The samples were analyzed by SDS-PAGE and scanning densitometry of the autoradiograms as described in "Experimental Procedures".

[18] = target: T1, vasopressin receptor; assay: [3H]vasopressin binding to Swiss 3T3 cells; parameters: species or system murine
[19] = test system: Swiss 3T3 cells; assay: Cytosolic Ca2+ concentration in Fura-2 loaded Swiss 3T3 cells; type: cell-based, murine; conditions: Fura-2 loaded cells
[20] = test system: Swiss 3T3 cells; assay: Stimulation of DNA synthesis in Swiss 3T3 cells; type: cell-based, murine; conditions: in the presence of insulin
[21] = target: T2, bombesin/GRP receptor; conditions: previously published; cited from earlier work

Compound: CC(C)C[C@H](NC(=O)[C@H](CC(C)C)NC(=O)[C@@H](Cc1c[nH]c2ccccc12)NC(=O)[C@H](Cc1ccccc1)NC(=O)[C@@H](Cc1c[nH]c2ccccc12)NC(=O)[C@H](CCC(N)=O)NC(=O)[C@H](CCC(N)=O)NC(=O)[C@@H]1CCCN1C(=O)[C@H](CCCCN)NC(=O)[C@H]1CCCN1C(=O)[C@H](N)CCCNC(=N)N)C(N)=O [antagonist A, D-Arg-D-Pro-Lys-Pro-Gln-Gln-D-Tro-Phe-D-Trp-Leu-Leu-NH2] (H-[dR][dP]KPQQ[dW]F[dW]LL-NH2)
- inhibition of [3H]vasopressin binding [1]: inhibit
- concentrations effective in inhibiting growth of SCLC ([2]; 5 of 5 cell lines tested: H69, H82, H128, H417 and UCH25): 50 to 150 µM
- IC50 [3]: 90 µM
- IC50 ([4]; 15° C., 30 minutes): 38 µM
- inhibition of vasopressin-stimulated DNA synthesis [5]: inhibit

Compound: CC(C)C[C@H](NC(=O)[C@H](CC(C)C)NC(=O)[C@@H](Cc1c[nH]c2ccccc12)NC(=O)[C@H](Cc1ccccc1)NC(=O)[C@@H](Cc1c[nH]c2ccccc12)NC(=O)[C@H](CCC(N)=O)NC(=O)[C@@H](Cc1ccccc1)NC(=O)[C@@H]1CCCN1C(=O)[C@H](CCCCN)NC(=O)[C@@H]1CCCN1C(=O)[C@H](N)CCCNC(=N)N)C(N)=O [antagonist D, D-Arg-Pro-Lys-Pro-D-Phe-Gln-D-Trp-Phe-D-Trp-Leu-Leu-NH2] (H-[dR]PKP[dF]Q[dW]F[dW]LL-NH2)
- inhibition of [3H]vasopressin binding [1]: inhibit
- inhibition of mitogenesis stimulated by EGF, PDGF, phorbol dibutyrate, cholera toxin and 8-bromo-cAMP ([6]; 20 μM antagonist D or 1 μm L.PSI.LB): Neither of them inhibited
- potency relative to Antagonist A in inhibiting growth of SCLC [2]: 5-10 fold
- IC50 [3]: 8.3 µM
- inhibition of mitogenesis stimulated by VIP ([7]; VIP 3.0 nM, 20 μM antagonist D or 1 μm L.PSI.LB): Neither antagonist D nor [Leu^13 -.PSI.(CH2 NH)Leu^14 ]bombesin inhibited
- inhibition of vasopressin-stimulated DNA synthesis [5]: inhibit
- effect against DNA synthesis induced by various bombesin-like peptides ([8]; 20 μM antagonist D or 1 μm L.PSI.LB, GRP 3.6 nM, bombesin 1.2 nM, litorin 1.8 nM): effective
- potency as bombesin antagonist relative to antagonist A [9]: 5-10 fold
- inhibition of vasopressin-induced DNA synthesis ([10]; 1 uM L.PSI.LB or antagonist D): potent inhibitor
- potency relative to antagonist A against each mitogen [11]: 5-10 fold

Compound: CC(C)C[C@@H](CN[C@@H](CC(C)C)C(N)=O)NC(=O)[C@H](Cc1c[nH]cn1)NC(=O)CNC(=O)[C@@H](NC(=O)[C@H](C)NC(=O)[C@H](Cc1c[nH]c2ccccc12)NC(=O)[C@H](CCC(N)=O)NC(=O)[C@H](CC(N)=O)NC(=O)CNC(=O)[C@H](CC(C)C)NC(=O)[C@H](CCCNC(=N)N)NC(=O)[C@H](CCC(N)=O)NC(=O)[C@@H]1CCC(=O)N1)C(C)C [[Leu^13 -.PSI.(CH2 NH)Leu^14]bombesin] ([pGlu]QRLGNQWAVGH-X1; C-terminus assumed)
- IC50 [12]: 0.035 µM
- inhibition of mitogenesis stimulated by EGF, PDGF, phorbol dibutyrate, cholera toxin and 8-bromo-cAMP [6]: Neither of them inhibited
- effect on bradykinin-stimulated DNA synthesis ([3]; 1 μM L.PSI.LB): no effect
- inhibition of specific binding of [125I]GRP to the cells [13]: inhibited
- block of cross-linking of [125I]GRP to the Mr 75,000-85,000 glycoprotein [14]: blocked
- inhibition of mitogenesis stimulated by VIP [7]: Neither antagonist D nor [Leu^13 -.PSI.(CH2 NH)Leu^14 ]bombesin inhibited
- block of EGF receptor transmodulation elicited by GRP [15]: blocked
- block of Ca2+ mobilisation elicited by GRP [16]: blocked
- effect against DNA synthesis induced by various bombesin-like peptides [8]: effective
- inhibition of GRP-induced DNA synthesis [8]: strongly inhibited
- inhibition of vasopressin-induced DNA synthesis [10]: no effect

Compound: RPPGFSPFR [Bradykinin, bradykinin]
- inhibition of specific binding of [125I]GRP to the cells [13]: did not inhibit
- specific binding of 125I-GRP to membranes [4]: 302 ± 9 fmole/mg protein
- remaining activity at 1 µM [17]: 95 ± 3%
- inhibition of [3H]vasopressin binding [18]: did not inhibit
- change in cytosolic Ca2+ concentration [19]: rapid and transient increase
- stimulation of DNA synthesis [20]: maximal stimulation

Compound: CSCC[C@H](NC(=O)[C@H](CC(C)C)NC(=O)CNC(=O)[C@H](Cc1ccccc1)NC(=O)[C@H](Cc1ccccc1)NC(=O)[C@H](CCC(N)=O)NC(=O)[C@H](CCC(N)=O)NC(=O)[C@@H]1CCCN1C(=O)[C@H](CCCCN)NC(=O)[C@@H]1CCCN1C(=O)[C@@H](N)CCCNC(=N)N)C(N)=O [substance P, Arg-Pro-Lys-Pro-Gln-Gln-phe-phe-Gly-Leu-Met-NH2]
- inhibition of binding of [125I]GRP to Swiss 3T3 cells [21]: neither inhibits
- specific binding of 125I-GRP to membranes [4]: 305 ± 4 fmole/mg protein
- remaining activity at 1 µM ([17]; addition at 1μM, 0.5 nM 125I-GRP, 37° C., 10 minutes, None 100): 93 ± 2%
